Reference: patent US9102701B2, “17-hydroxy-17-pentafluoroethyl-estra-4,9(10)-diene-11-ethynylphenyl derivatives, methods for the production thereof and use thereof for treating diseases” (Bayer Intellectual Property GmbH, priority 2009, dated 2015)

Legend:
[1] = molecular target: T1, human progesterone receptor A (Homo sapiens, UniProt P06401); test: Progesterone receptor-antagonistic action in stably transfected SK-N-MC cells, PR-A, MMTV-LUC reporter; format: cell-based; conditions: read-out: IC50 PR-A
T1 construct: expressed in transfected cells; host or cells: SK-N-MC human neuroblastoma cells, stably transfected with pRChPR-A-neo and pMMTV-LUC
T1 sequence (P06401 1-769 isoform P06401-2): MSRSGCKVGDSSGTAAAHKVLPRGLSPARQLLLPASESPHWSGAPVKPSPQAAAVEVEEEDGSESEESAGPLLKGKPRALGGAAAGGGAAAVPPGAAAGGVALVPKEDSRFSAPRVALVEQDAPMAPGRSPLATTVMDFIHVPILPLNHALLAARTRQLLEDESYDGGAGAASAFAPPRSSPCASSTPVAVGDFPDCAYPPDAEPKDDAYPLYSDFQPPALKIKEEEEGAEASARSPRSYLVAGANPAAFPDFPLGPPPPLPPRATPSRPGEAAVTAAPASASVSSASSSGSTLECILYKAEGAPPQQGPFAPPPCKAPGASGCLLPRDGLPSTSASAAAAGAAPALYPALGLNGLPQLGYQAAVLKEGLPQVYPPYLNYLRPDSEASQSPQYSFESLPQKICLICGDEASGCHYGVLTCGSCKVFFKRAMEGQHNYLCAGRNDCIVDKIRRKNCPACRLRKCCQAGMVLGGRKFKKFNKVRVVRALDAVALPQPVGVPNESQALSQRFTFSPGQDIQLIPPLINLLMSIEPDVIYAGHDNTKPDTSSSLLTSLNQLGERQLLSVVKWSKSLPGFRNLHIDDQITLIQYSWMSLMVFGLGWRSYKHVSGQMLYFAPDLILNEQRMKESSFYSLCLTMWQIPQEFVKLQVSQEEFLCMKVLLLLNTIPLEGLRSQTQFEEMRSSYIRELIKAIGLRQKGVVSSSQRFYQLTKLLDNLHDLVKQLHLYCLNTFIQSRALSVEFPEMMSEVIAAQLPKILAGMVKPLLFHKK
Method: (§1) Determination of Progesterone Receptor-Antagonistic Action in Stable Transfectants of Human Neuroblastoma Cells (SK-N-MC Cells) with the Human Progesterone a or Progesterone B Receptor and an MN-LUC Reporter Construct
(§2) SK-N-MC cells (human neuroblastoma cells) which have been stably transfected with plasmids expressing the human progesterone receptor B (pRChPR-B-neo) or the human progesterone receptor A (pRChPR-A-neo) and a reporter construct (pMMTV-LUC) were incubated for 24 hours either in the absence (negative control) or in the presence of ascending amounts of the particular test compound (0.01 nmol/l, 0.1 nmol/l, 1 nmol/l, 10 nmol/l, 100 nmol/l and […]), in order to determine the agonistic efficacy. As a positive control of the reporter gene induction, the cells were treated with the synthetic gestagen promegestone (0.01 nmol/l, 0.1 nmol/l, 1 nmol/l, 10 nmol/l, 100 nmol/l and […]). To determine the antagonistic activity, the cells were treated with 0.1 nmol/l promegestone and additionally with ascending amounts of the particular test compound (0.01 nmol/l, 0.1 nmol/l, 1 nmol/l, 10 nmol/l, 100 nmol/l and […]). The activity of the reporter gene LUC (LUC=luciferase) was determined in the cell lysates and measured as RLU (relative light units). All measurements are reported as % efficacy and as EC50 and IC50 concentrations.

[2] = molecular target: T2, human progesterone receptor B (Homo sapiens, UniProt P06401); test: Progesterone receptor-antagonistic action in stably transfected SK-N-MC cells, PR-B, MMTV-LUC reporter; format: cell-based; conditions: read-out: IC50 PR-B
T2 construct: expressed in transfected cells; host or cells: SK-N-MC human neuroblastoma cells, stably transfected with pRChPR-B-neo and pMMTV-LUC
T2 sequence (P06401 1-933): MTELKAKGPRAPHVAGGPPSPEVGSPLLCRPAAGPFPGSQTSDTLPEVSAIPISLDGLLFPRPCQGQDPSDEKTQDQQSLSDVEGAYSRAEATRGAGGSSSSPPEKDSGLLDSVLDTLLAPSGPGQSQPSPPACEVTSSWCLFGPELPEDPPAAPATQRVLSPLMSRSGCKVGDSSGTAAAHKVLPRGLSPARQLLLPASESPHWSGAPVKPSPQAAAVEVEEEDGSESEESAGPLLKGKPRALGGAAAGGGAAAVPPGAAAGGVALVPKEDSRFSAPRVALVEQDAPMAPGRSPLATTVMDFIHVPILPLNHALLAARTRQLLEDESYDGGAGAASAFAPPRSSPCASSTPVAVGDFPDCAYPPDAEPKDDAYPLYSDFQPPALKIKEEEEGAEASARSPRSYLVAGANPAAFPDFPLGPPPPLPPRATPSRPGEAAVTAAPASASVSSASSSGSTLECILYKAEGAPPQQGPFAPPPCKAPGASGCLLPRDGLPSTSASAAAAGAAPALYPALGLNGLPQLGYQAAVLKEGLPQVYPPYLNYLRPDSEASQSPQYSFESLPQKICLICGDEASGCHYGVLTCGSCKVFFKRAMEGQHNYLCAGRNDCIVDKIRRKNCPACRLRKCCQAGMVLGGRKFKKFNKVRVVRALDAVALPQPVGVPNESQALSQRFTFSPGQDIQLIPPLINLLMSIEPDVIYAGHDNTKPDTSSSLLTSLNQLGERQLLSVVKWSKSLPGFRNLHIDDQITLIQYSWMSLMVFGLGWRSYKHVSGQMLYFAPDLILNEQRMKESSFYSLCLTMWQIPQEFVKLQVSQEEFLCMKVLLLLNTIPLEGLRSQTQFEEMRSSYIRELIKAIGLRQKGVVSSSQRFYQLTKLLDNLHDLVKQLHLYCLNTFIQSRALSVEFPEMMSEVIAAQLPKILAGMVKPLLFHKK
Method: as §1, §2

IC50 [1] [pM]	IC50 [2] [pM]	Structure (SMILES)
200	100	COc1ccc(NC(=O)NCC#Cc2ccc([C@H]3C[C@@]4(C)[C@@H](CC[C@@]4(O)C(F)(F)C(F)(F)F)[C@@H]4CCC5=CC(=O)CCC5=C43)cc2)cc1 [Example 32, 1-{3-[4-((8S,11R,13S,14S,17S)-17-hydroxy-13-methyl-3-oxo-17-pentafluoroethyl-2,3,6,7,8,11,12,13,14,15,16,17-dodecahydro-1H-cyclopenta[a]phenanthren-11-yl)phenyl]prop-2-ynyl}-3-(4-methoxyphenyl)urea]
900	800	CC(C)(C)c1ccc(NC(=O)NCC#Cc2ccc([C@H]3C[C@@]4(C)[C@@H](CC[C@@]4(O)C(F)(F)C(F)(F)F)[C@@H]4CCC5=CC(=O)CCC5=C43)cc2)cc1 [Example 33, 1-{3-[4-((8S,11R,13S,14S,17S)-17-hydroxy-13-methyl-3-oxo-17-pentafluoroethyl-2,3,6,7,8,11,12,13,14,15,16,17-dodecahydro-1H-cyclopenta[a]phenanthren-11-yl)phenyl]prop-2-ynyl}-3-(4-tert-butylphenyl)urea]
400	400	C[C@]12C[C@H](c3ccc(C#CCNC(=O)Nc4ccc(Cl)cc4)cc3)C3=C4CCC(=O)C=C4CC[C@H]3[C@@H]1CC[C@@]2(O)C(F)(F)C(F)(F)F [Example 35, 1-{3-[4-((8S,11R,13S,14S,17S)-17-hydroxy-13-methyl-3-oxo-17-pentafluoroethyl-2,3,6,7,8,11,12,13,14,15,16,17-dodecahydro-1H-cyclopenta[a]phenanthren-11-yl)phenyl]prop-2-ynyl}-3-(4-chlorophenyl)urea]
100	400	CCOC(=O)c1ccc(NC(=O)NCC#Cc2ccc([C@H]3C[C@@]4(C)C(CC[C@@]4(O)C(F)(F)C(F)(F)F)C4CCC5=CC(=O)CCC5=C43)cc2)cc1 (stereo partly drawn) [Example 37, 4-(3-{3-[4-((8S,11R,13S,14S,17S)-17-hydroxy-13-methyl-3-oxo-17-pentafluoroethyl-2,3,6,7,8,11,12,13,14,15,16,17-dodecahydro-1H-cyclopenta[a]phenanthren-1′-yl)phenyl]prop-2-ynyl}ureido)benzoic acid ethyl ester]
200	300	Cc1ccc(NC(=O)NCC#Cc2ccc([C@H]3C[C@@]4(C)[C@@H](CC[C@@]4(O)C(F)(F)C(F)(F)F)[C@@H]4CCC5=CC(=O)CCC5=C43)cc2)cc1 [Example 38, 1-{3-[4-((8S,11R,13S,14S,17S)-17-hydroxy-13-methyl-3-oxo-17-pentafluoroethyl-2,3,6,7,8,11,12,13,14,15,16,17-dodecahydro-1H-cyclopenta[a]phenanthren-11-yl)phenyl]prop-2-ynyl}-3-(4-methylphenyl)urea]
100	100	C[C@]12C[C@H](c3ccc(C#CCNC(=O)NCc4ccccc4)cc3)C3=C4CCC(=O)C=C4CCC3C1CC[C@@]2(O)C(F)(F)C(F)(F)F (stereo partly drawn) [Example 39, 1-benzyl-3-{3-[4-((8S,11R,13S,14S,17S)-17-hydroxy-13-methyl-3-oxo-17-pentafluoroethyl-2,3,6,7,8,11,12,13,14,15,16,17-dodecahydro-1H-cyclopenta[a]phenanthren-1′-yl)phenyl]prop-2-ynyl}urea]
100	300	CC(C)(C)NC(=O)NCC#Cc1ccc([C@H]2C[C@@]3(C)[C@@H](CC[C@@]3(O)C(F)(F)C(F)(F)F)[C@@H]3CCC4=CC(=O)CCC4=C32)cc1 [Example 40, 1-{3-[4-((8S,11R,13S,14S,17S)-17-hydroxy-13-methyl-3-oxo-17-pentafluoroethyl-2,3,6,7,8,11,12,13,14,15,16,17-dodecahydro-1H-cyclopenta[a]phenanthren-11-yl)phenyl]prop-2-ynyl}-3-tert-butylurea]
100	100	C=CCNC(=O)NCC#Cc1ccc([C@H]2C[C@@]3(C)[C@@H](CC[C@@]3(O)C(F)(F)C(F)(F)F)[C@@H]3CCC4=CC(=O)CCC4=C32)cc1 [Example 41, 1-allyl-3-{3-[4-((8S,11R,13S,14S,17S)-17-hydroxy-13-methyl-3-oxo-17-pentafluoroethyl-2,3,6,7,8,11,12,13,14,15,16,17-dodecahydro-1H-cyclopenta[a]phenanthren-1′-yl)phenyl]prop-2-ynyl}urea]
700	800	CCOC(=O)CNC(=O)NCC#Cc1ccc([C@H]2C[C@@]3(C)C(CC[C@@]3(O)C(F)(F)C(F)(F)F)C3CCC4=CC(=O)CCC4=C32)cc1 (stereo partly drawn) [Example 42, (3-{3-[4-((8S,11R,13S,14S,17S)-17-hydroxy-13-methyl-3-oxo-17-pentafluoroethyl-2,3,6,7,8,11,12,13,14,15,16,17-dodecahydro-1H-cyclopenta[a]phenanthren-1′-yl)phenyl]prop-2-ynyl}ureido)acetic acid ethyl ester]
800	900	C[C@]12C[C@H](c3ccc(C#CCNC(=O)Nc4ccc(N5CCCCC5)cc4)cc3)C3=C4CCC(=O)C=C4CC[C@H]3[C@@H]1CC[C@@]2(O)C(F)(F)C(F)(F)F [Example 43, 1-{3-[4-((8S,11R,13S,14S,17S)-17-hydroxy-13-methyl-3-oxo-17-pentafluoroethyl-2,3,6,7,8,11,12,13,14,15,16,17-dodecahydro-1H-cyclopenta[a]phenanthren-11-yl)phenyl]prop-2-ynyl}-3-(4-piperidin-1-ylphenyl)urea]
10	10	C=CCNC(=O)OCC#Cc1ccc([C@H]2C[C@@]3(C)C(CC[C@@]3(O)C(F)(F)C(F)(F)F)C3CCC4=CC(=O)CCC4=C32)cc1 (stereo partly drawn) [Example 44, allylcarbamic acid 3-[4-((8S,11R,13S,14S,17S)-17-hydroxy-13-methyl-3-oxo-17-pentafluoroethyl-2,3,6,7,8,11,12,13,14,15,16,17-dodecahydro-1H-cyclopenta[a]phenanthren-1′-yl)phenyl]prop-2-ynyl ester]
10	10	CCNC(=O)OCC#Cc1ccc([C@H]2C[C@@]3(C)C(CC[C@@]3(O)C(F)(F)C(F)(F)F)C3CCC4=CC(=O)CCC4=C32)cc1 (stereo partly drawn) [Example 45, ethylcarbamic acid 3-[4-((8S,11R,13S,14S,17S)-17-hydroxy-13-methyl-3-oxo-17-pentafluoroethyl-2,3,6,7,8,11,12,13,14,15,16,17-dodecahydro-1H-cyclopenta[a]phenanthren-1′-yl)phenyl]prop-2-ynyl ester]
